For the assay, the target named is rat PDE10 enzyme (Rattus norvegicus (Rat), UniProt Q9QYJ6). In words: PDE10 scintillation proximity assay (SPA), inhibition of rat PDE10 enzyme activity. It is filed as biochemical. The following applies: geometric mean of 2-4 determinations unless otherwise indicated (b: ≧5 determinations; c: single determination). Here is the method: PDE10 activity was measured using a scintillation assay (SPA-based method) similar to that previously described by Seeger, T. F. et al., Brain Research 985 (2003) 113-126. The compounds' relative activity as PDE10 inhibitors was investigated by assaying a fixed amount of enzyme in the presence of the test compound and low substrate concentration (cAMP) such that an IC50 could be determined. […] The assay is performed in a 384-well format with 50 μL assay buffer (50 mM TRIS pH 7.5; 1.3 mM MgCl2; 0.01% Brij) containing enough PDE10 to convert ˜20% of 20 nM ^3H-cAMP, and a range of inhibitors. Reactions are incubated for 30 minutes at 25° C. The addition of 20 μL of 8 mg/ml yttrium silicate SPA beads (PerkinElmer) stops the reaction. The plates are sealed (TopSeal, PerkinElmer) and the beads are allowed to settle for 8 hrs, after which they are read on the Trilux Microbeta overnight. ^1Rat enzyme preparation:^2Human enzyme preparation:
The recombinant Bacmid was isolated and used to transfect sf9 insect cells to generate a viral stock. To generate cell paste for purification, sf21 cells were infected with the virus stock and cells were harvested 72 hours after infection as described in Seeger, T. F. et al., Brain Research 985 (2003) 113-126. Insect cell paste was lysed and after centrifugation, the supernatant was chromatographed on Ni-NTA agarose (Qiagen) followed by Mono Q (GE Healthcare Life Sciences) as described in Seeger, T. F. et al., Brain Research 985 (2003) 113-126.
Sequence of rat PDE10 enzyme (Q9QYJ6 24-794): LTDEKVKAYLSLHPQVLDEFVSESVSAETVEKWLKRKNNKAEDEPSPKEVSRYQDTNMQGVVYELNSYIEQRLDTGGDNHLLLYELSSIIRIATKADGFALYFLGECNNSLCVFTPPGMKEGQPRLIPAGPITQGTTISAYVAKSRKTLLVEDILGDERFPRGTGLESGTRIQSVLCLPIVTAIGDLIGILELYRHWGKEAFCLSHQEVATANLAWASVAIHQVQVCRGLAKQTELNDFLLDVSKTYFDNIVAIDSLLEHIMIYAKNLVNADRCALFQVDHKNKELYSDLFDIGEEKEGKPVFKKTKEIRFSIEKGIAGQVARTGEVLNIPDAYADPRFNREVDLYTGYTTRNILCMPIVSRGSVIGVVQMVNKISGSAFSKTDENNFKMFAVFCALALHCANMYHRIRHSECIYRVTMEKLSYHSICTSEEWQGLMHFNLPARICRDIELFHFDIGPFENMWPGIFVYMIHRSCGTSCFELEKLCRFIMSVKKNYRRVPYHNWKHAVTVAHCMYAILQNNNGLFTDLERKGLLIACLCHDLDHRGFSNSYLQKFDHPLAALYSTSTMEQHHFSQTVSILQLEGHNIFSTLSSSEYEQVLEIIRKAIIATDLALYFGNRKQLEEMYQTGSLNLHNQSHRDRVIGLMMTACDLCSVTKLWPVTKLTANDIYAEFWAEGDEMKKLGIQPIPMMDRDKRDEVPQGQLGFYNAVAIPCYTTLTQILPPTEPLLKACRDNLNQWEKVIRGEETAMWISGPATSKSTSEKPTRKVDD
What is called IC50 is the concentration that gives 50% inhibition. Turning to `Cc1nc([C@H]2CCOC2)c2c(N3CCc4nn(C(C)C)cc4C3)ncnn12` [Example 100, 7-methyl-4-[2-(propan-2-yl)-2,4,6,7-tetrahydro-5H-pyrazolo[4,3-c]pyridin-5-yl]-5-[(3R)-tetrahydrofuran-3-yl]imidazo[5,1-f][1,2,4]triazine], inhibition was half-maximal at 23 nM (IC50). Consider `Cc1nc(-c2ccccc2F)c2c(N3Cc4ccccc4CC3C)ncnn12` (stereo not drawn) [Example 116, 2-[5-(2-fluorophenyl)-7-methylimidazo[5,1-f][1,2,4]triazin-4-yl]-3-methyl-1,2,3,4-tetrahydroisoquinoline], for which the IC50 worked out at 8.01 nM. The value for `COc1cc2c(cc1OC)CN(c1ncnn3c(C)nc([C@@H]4CCOC4)c13)CC2` [Example 15, 6,7-dimethoxy-2-{7-methyl-5-[(3S)-tetrahydrofuran-3-yl]imidazo[5,1-f][1,2,4]triazin-4-yl}-1,2,3,4-tetrahydroisoquinoline] was 0.716 nM; that for `Cc1nc([C@@H]2CCOC2)c2c(N3CCc4nc(C5CC5)ccc4C3)ncnn12` [Example 154, 2-cyclopropyl-6-{7-methyl-5-[(3S)-tetrahydrofuran-3-yl]imidazo[5,1-f][1,2,4]triazin-4-yl}-5,6,7,8-tetrahydro-1,6-naphthyridine] was 0.144 nM. Consider `COc1cc2c(cc1OC)CN(c1ncnn3c(C)nc([C@H]4CCOC4)c13)CC2` [Example 14, 6,7-dimethoxy-2-{7-methyl-5-[(3R)-tetrahydrofuran-3-yl]imidazo[5,1-f][1,2,4]triazin-4-yl}-1,2,3,4-tetrahydroisoquinoline], for which half-maximal inhibition (IC50) required 1.62 nM. Molecule `Cc1nc(CC(C)C)c2c(N3CCc4noc(C5CC5)c4C3)ncnn12` [Example 94, 4-(3-cyclopropyl-6,7-dihydro[1,2]oxazolo[4,3-c]pyridin-5(4H)-yl)-7-methyl-5-(2-methylpropyl)imidazo[5,1-f][1,2,4]triazine] came in with an IC50 of 2.89 nM. Against the preceding molecule, the IC50 is about 1.8-fold higher. For the molecule `COc1cc2c(cc1OC)CN(c1ncnn3c(C)nc([C@H]4CCCO4)c13)CC2` [Example 82, 6,7-dimethoxy-2-{7-methyl-5-[(2R)-tetrahydrofuran-2-yl]imidazo[5,1-f][1,2,4]triazin-4-yl}-1,2,3,4-tetrahydroisoquinoline], the IC50 was found to be 37.2 nM. The value for `Cc1nc(-c2ccccc2F)c2c(N3CCc4noc(C5CC5)c4C3)ncnn12` [Example 46, 4-(3-cyclopropyl-6,7-dihydroisoxazolo[4,3-c]pyridin-5(4H)-yl)-5-(2-fluorophenyl)-7-methylimidazo[5,1-f][1,2,4]triazine] was 1.98 nM; that for `Cc1c2c(nn1C)CCN(c1ncnn3c(C)nc(-c4ccccc4F)c13)C2` [Example 113] was 0.638 nM; that for `Cc1nc(-c2ccccc2F)c2c(N3CCc4c(c(C(C)C)nn4C)C3)ncnn12` [Example 43, 5-(2-fluorophenyl)-4-(3-isopropyl-1-methyl-1,4,6,7-tetrahydro-5H-pyrazolo[4,3-c]pyridin-5-yl)-7-methylimidazo[5,1-f][1,2,4]triazine] was 0.465 nM.

In turn, `Cc1nc([C@H]2CCOC2)c2c(N3CCc4nc(C5CC5)ncc4C3)ncnn12` [Example 56, 2-cyclopropyl-6-{7-methyl-5-[(3R)-tetrahydrofuran-3-yl]imidazo[5,1-f][1,2,4]triazin-4-yl}-5,6,7,8-tetrahydropyrido[4,3-d]pyrimidine] came in with an IC50 of 5.34 nM.

`COc1ccc2c(n1)CN(c1ncnn3c(C)nc(-c4ccccc4F)c13)CC2` [Example 69, 7-[5-(2-fluorophenyl)-7-methylimidazo[5,1-f][1,2,4]triazin-4-yl]-2-methoxy-5,6,7,8-tetrahydro-1,7-naphthyridine] gave an IC50 of 7.3 nM. Consider `Cc1nc([C@H]2CCCO2)c2c(N3CCc4nc(C5CC5)ncc4C3)ncnn12` [Example 79], for which the IC50 worked out at 11.2 nM.

Regarding `CNc1ccc2c(n1)CCN(c1ncnn3c(C)nc(-c4ccccc4F)c13)C2` [Example 153, 6-[5-(2-fluorophenyl)-7-methylimidazo[5,1-f][1,2,4]triazin-4-yl]-N-methyl-5,6,7,8-tetrahydro-1,6-naphthyridin-2-amine], the IC50 is 0.436 nM.

As for `CCn1c(C)nc2c(c1=O)CN(c1ncnn3c(C)nc(-c4ccccc4F)c13)CC2` [Example 126, 3-ethyl-6-[5-(2-fluorophenyl)-7-methylimidazo[5,1-f][1,2,4]triazin-4-yl]-2-methyl-5,6,7,8-tetrahydropyrido[4,3-d]pyrimidin-4(3H)-one], the IC50 came out at 1.19 nM.

As for `Cc1nc([C@H]2CCCO2)c2c(N3CCc4noc(C5CC5)c4C3)ncnn12` [Example 78, 4-(3-cyclopropyl-6,7-dihydro[1,2]oxazolo[4,3-c]pyridin-5(4H)-yl)-7-methyl-5-[(2R)-tetrahydrofuran-2-yl]imidazo[5,1-f][1,2,4]triazine], the IC50 came out at 3.89 nM. Compared with the last molecule, the IC50 is about 3.3-fold higher. Molecule `Cc1nc([C@@H]2CCOC2)c2c(N3CCc4noc(C(C)C)c4C3)ncnn12` [Example 30, 7-methyl-4[3-(propan-2-yl)-6,7-dihydro[1,2]oxazolo[4,3-c]pyridin-5(4H)-yl]-5-[(3S)-tetrahydrofuran-3-yl]imidazo[5,1-f][1,2,4]triazine] yielded a 50% inhibitory concentration (IC50) of 3.52 nM. The IC50 values of the last two molecules are within 1.5-fold of each other.

In the case of `CCc1c2c(nn1C)CCN(c1ncnn3c(C)nc(-c4ccc(F)cc4Cl)c13)C2` [Example 120, 5-(2-chloro-4-fluorophenyl)-4-(3-ethyl-2-methyl-2,4,6,7-tetrahydro-5H-pyrazolo[4,3-c]pyridin-5-yl)-7-methylimidazo[5,1-f][1,2,4]triazine], the IC50 was 0.233 nM. Compared with the last molecule, the IC50 is about 15-fold lower.

Regarding `Cc1nc([C@@H]2CCOC2)c2c(N3CCc4nc(C5CC5)nc(O)c4C3)ncnn12` [Example 52, 2-cyclopropyl-6-{7-methyl-5-[(3S)-tetrahydrofuran-3-yl]imidazo[5,1-f][1,2,4]triazin-4-yl}-5,6,7,8-tetrahydropyrido[4,3-d]pyrimidin-4-ol], the IC50 stood at 0.101 nM. `Cc1nn(C)c2c1CN(c1ncnn3c(C)nc([C@@H]4CCOC4)c13)CC2` [Example 93, 4-(1,3-dimethyl-1,4,6,7-tetrahydro-5H-pyrazolo[4,3-c]pyridin-5-yl)-7-methyl-5-[(3S)-tetrahydrofuran-3-yl]imidazo[5,1-f][1,2,4]triazine] displayed a 50% inhibitory concentration (IC50) of 0.761 nM. Against the preceding molecule, the IC50 is about 7.5-fold higher. In turn, `Cc1nc([C@@H]2CCOC2)c2c(N3CCc4nc(C5CC5)nc(OC(F)F)c4C3)ncnn12` [Example 141, 2-cyclopropyl-4-(difluoromethoxy)-6-{7-methyl-5-[(3S)-tetrahydrofuran-3-yl]imidazo[5,1-f][1,2,4]triazin-4-yl}-5,6,7,8-tetrahydropyrido[4,3-d]pyrimidine] came in with an IC50 of 0.142 nM. The result for `Cc1nc([C@@H]2CCOC2)c2c(N3CCc4nccnc4C3)ncnn12` [Example 171, 6-{7-methyl-5-[(3S)-tetrahydrofuran-3-yl]imidazo[5,1-f][1,2,4]triazin-4-yl}-5,6,7,8-tetrahydropyrido[3,4-b]pyrazine] reads 2.55 nM; that for `CCn1c(C2CC2)nc2c(c1=O)CN(c1ncnn3c(C)nc(-c4ccccc4F)c13)CC2` [Example 149, 2-cyclopropyl-3-ethyl-6-[5-(2-fluorophenyl)-7-methylimidazo[5,1-f][1,2,4]triazin-4-yl]-5,6,7,8-tetrahydropyrido[4,3-d]pyrimidin-4(3H)-one], 0.497 nM. In turn, `CCc1n[nH]c2c1CN(c1ncnn3c(C)nc(C4CCOCC4)c13)CC2` [Example 107, 4-(3-ethyl-1,4,6,7-tetrahydro-5H-pyrazolo[4,3-c]pyridin-5-yl)-7-methyl-5-(tetrahydro-2H-pyran-4-yl)imidazo[5,1-f][1,2,4]triazine] returned an IC50 of 0.959 nM. Molecule `Cc1nc(C2CCOCC2)c2c(N3CCc4[nH]nc(C(C)C)c4C3)ncnn12` [Example 108, 7-methyl-4-(3-(propan-2-yl)-1,4,6,7-tetrahydro-5H-pyrazolo[4,3-c]pyridin-5-yl]-5-(tetrahydro-2H-pyran-4-yl)imidazo[5,1-f][1,2,4]triazine] showed an IC50 of 0.902 nM. With `CCc1nn(C)c2c1CN(c1ncnn3c(C)nc(-c4ccc(F)cc4Cl)c13)CC2` [Example 119, 5-(2-chloro-4-fluorophenyl)-4-(3-ethyl-1-methyl-1,4,6,7-tetrahydro-5H-pyrazolo[4,3-c]pyridin-5-yl)-7-methylimidazo[5,1-f][1,2,4]triazine], half-maximal inhibition (IC50) was put at 0.519 nM. The value for `Cc1nc(C2CCOCC2)c2c(N3CCc4nc(C5CC5)ncc4C3)ncnn12` [Example 61, 2-cyclopropyl-6-[7-methyl-5-(tetrahydro-2H-pyran-4-yl)imidazo[5,1-f][1,2,4]triazin-4-yl]-5,6,7,8-tetrahydropyrido[4,3-d]pyrimidine] was under 3.52 nM; that for `COc1nccc2c1CN(c1ncnn3c(C)nc(-c4ccccc4F)c13)CC2` [Example 68, 2-[5-(2-fluorophenyl)-7-methylimidazo[5,1-f][1,2,4]triazin-4-yl]-8-methoxy-1,2,3,4-tetrahydro-2,7-naphthyridine] was 0.895 nM. Molecule `Cc1nc(-c2ccccc2F)c2c(N3CCc4ncncc4C3)ncnn12` [Example 110, 6-[5-(2-fluorophenyl)-7-methylimidazo[5,1-f][1,2,4]triazin-4-yl]-5,6,7,8-tetrahydropyrido[4,3-d]pyrimidine] registered an IC50 of 20 nM. Against the preceding molecule, the IC50 is about 22-fold higher. For the molecule `CCc1nn(C)c2c1CN(c1ncnn3c(C)nc(-c4ccccc4F)c13)CC2` [Example 117], the IC50 came out at 0.336 nM.

(Values after US8933224B2, “Triazine derivatives” (Pfizer Inc., priority 2013, dated 2015).)
